Laboratory results published in patent US20230374015A1, “INHIBITORS OF FIBROBLAST GROWTH FACTOR RECEPTOR KINASES” (Kinnate Biopharma Inc., priority 2020, published 2023).

What was measured:
[1] = target: T1, FGFR2 (Homo sapiens, UniProt P21802); experiment: FGFR2 Kinase Protocol - Condition 1 (Reaction Biology HotSpot radiometric kinase assay); format: biochemical; details: 20-min incubation of compound with kinase before ATP; poly[Glu:Tyr] (4:1) 0.2 mg/ml; ATP 100 micromolar; 2 hr room temperature
Description: Example 1: FGFR2 Kinase Protocol—Condition 1
The Reaction Biology HotSpot assay platform (http://www.reactionbiology.com) was used to measure kinase/inhibitor interactions as described previously (Anastassiadis et al., 2011). In brief, for each reaction, kinase and substrate were mixed in a buffer containing 20 mM HEPES (pH 7.5), 10 mM MgCl2, 1 mM EGTA, 0.02% Brij35, 0.02 mg/mL BSA, 0.1 mM Na3VO4, 2 mM DTT, and 1% DMSO. All compounds were in powder form and freshly solubilized in DMSO for assays. Compounds were then added to each reaction mixture via acoustic dispense using an ECHO 550 nanoliter dispenser. For Human FGFR2 wildtype testing, a peptide substrate, poly[Glu:Tyr] (4:1) was used to promote the reaction at a concentration of 0.2 mg/ml. For Human FGFR2 (V564F) testing, a peptide substrate, poly[Glu:Tyr] (4:1) was used to promote the reaction at a concentration of 0.2 mg/ml. ATP concentration for all assays was maintained at 100 micromolar. Compounds were tested in 10-dose IC50 mode with a 3-fold serial dilution. After a 20-min incubation, ATP (Sigma-Aldrich, St. Louis, MO 63178) and [g33P] ATP (specific activity 10 microCi/microliter) purchased at PerkinElmer (Boston, MA, 02118 Cat #BLU 003H250UC) were added at a final total concentration of […]. Reactions were carried out at room temperature for 2 hr and spotted onto P81 ion exchange cellulose chromatography paper (Reaction Biology). Filter paper was washed in 0.75% phosphoric acid to remove unincorporated ATP. The percent remaining kinase activity relative to a vehicle-containing (DMSO) kinase reaction was calculated for each kinase/inhibitor pair. IC50 values were calculated using Dotmatics Knowledge Solutions Studies curve fitting (Dotmatics, Bishops Stortford, UK, CM23).

[2] = target: T1, FGFR2; experiment: FGFR2 Kinase Protocol - Condition 2 (Reaction Biology HotSpot radiometric kinase assay, no preincubation); format: biochemical; details: poly[Glu:Tyr] (4:1) 0.2 mg/ml, ATP 100 microM, 2 hr room temperature
In short: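 Ten-point, 3-fold compound dilutions were tested against wildtype or V564F FGFR2 with 100 µM ATP (33P-labelled), no preincubation, and 0.2 mg/ml poly[Glu:Tyr] (4:1) substrate. After 2 hr at room temperature, incorporation was read on P81 filter paper; IC50 fitted from activity remaining relative to vehicle.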

T1 sequence (P21802 22-821): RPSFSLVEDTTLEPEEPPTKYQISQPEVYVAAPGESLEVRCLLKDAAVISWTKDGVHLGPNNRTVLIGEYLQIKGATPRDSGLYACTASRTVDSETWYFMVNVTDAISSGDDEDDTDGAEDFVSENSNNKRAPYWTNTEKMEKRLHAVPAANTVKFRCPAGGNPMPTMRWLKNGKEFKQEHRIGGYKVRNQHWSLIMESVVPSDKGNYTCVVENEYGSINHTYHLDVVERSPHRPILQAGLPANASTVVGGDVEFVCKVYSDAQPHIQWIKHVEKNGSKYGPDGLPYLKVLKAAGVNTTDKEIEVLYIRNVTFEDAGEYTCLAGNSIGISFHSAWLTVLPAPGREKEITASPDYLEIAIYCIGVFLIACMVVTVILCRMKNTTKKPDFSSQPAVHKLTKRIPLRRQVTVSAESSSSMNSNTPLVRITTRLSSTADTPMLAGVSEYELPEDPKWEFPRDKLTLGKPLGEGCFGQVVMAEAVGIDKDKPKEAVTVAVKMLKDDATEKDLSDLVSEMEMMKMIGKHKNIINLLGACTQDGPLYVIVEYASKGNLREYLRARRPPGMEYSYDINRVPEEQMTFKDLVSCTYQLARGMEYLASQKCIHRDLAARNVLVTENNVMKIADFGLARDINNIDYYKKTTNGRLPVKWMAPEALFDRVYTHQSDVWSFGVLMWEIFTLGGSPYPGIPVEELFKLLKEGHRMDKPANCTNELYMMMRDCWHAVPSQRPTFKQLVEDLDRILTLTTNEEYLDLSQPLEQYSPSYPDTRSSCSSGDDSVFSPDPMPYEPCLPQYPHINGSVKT

IC50 [1]	Structure (SMILES)	other results
≤ 100 nM	C=CC(=O)N1C[C@@H](n2nc(C#Cc3ccc4c(c3)ncn4C)c3c(N)nccc32)C[C@@H]1COC [Example 19, 1-((2R,4S)-4-(4-amino-3-((1-methyl-1H-benzo[d]imidazol-5-yl)ethynyl)-1H-pyrazolo[4,3-c]pyridin-1-yl)-2-(methoxymethyl)pyrrolidin-1-yl)prop-2-en-1-one]	
≤ 100 nM	C=CC(=O)N1C[C@@H](n2nc(C#Cc3ccc4c(c3)nc(C)n4C)c3c(N)nccc32)C[C@@H]1COC [Example 25, 1-((2R,4S)-4-(4-amino-3-((1,2-dimethyl-1H-benzo[d]imidazol-5-yl)ethynyl)-1H-pyrazolo[4,3-c]pyridin-1-yl)-2-(methoxymethyl)pyrrolidin-1-yl)prop-2-en-1-one]	
100 to 1000 nM	C=CC(=O)N1C[C@@H](n2nc(C#Cc3ccc4ncn(C)c4c3)c3c(N)ncnc32)C[C@@H]1COC [Example 9, 1-((2R,4S)-4-(4-amino-3-((1-methyl-1H-benzo[d]imidazol-6-yl)ethynyl)-1H-pyrazolo[3,4-d]pyrimidin-1-yl)-2-(methoxymethyl)pyrrolidin-1-yl)prop-2-en-1-one]	
≤ 100 nM	C=CC(=O)N1C[C@@H](n2nc(C#Cc3c(F)cc4nc(C)[nH]c4c3F)c3c(N)nccc32)C[C@@H]1COC [Example 18, 1-((2R,4S)-4-(4-amino-3-((5,7-difluoro-2-methyl-1H-benzo[d]imidazol-6-yl)ethynyl)-1H-pyrazolo[4,3-c]pyridin-1-yl)-2-(methoxymethyl)pyrrolidin-1-yl)prop-2-en-1-one]	
≤ 100 nM	C=CC(=O)N1C[C@@H](n2nc(C#Cc3ccc4c(c3)nc(C)n4CC)c3c(N)nccc32)C[C@@H]1COC [Example 21, 1-((2R,4S)-4-(4-amino-3-((1-ethyl-2-methyl-1H-benzo[d]imidazol-5-yl)ethynyl)-1H-pyrazolo[4,3-c]pyridin-1-yl)-2-(methoxymethyl)pyrrolidin-1-yl)prop-2-en-1-one]	
≤ 100 nM	C=CC(=O)N1C[C@@H](n2nc(C#Cc3ccc4[nH]cnc4c3)c3c(N)ncnc32)C[C@@H]1COC [Example 5, 1-((2R,4S)-4-(3-((1H-benzo[d]imidazol-5-yl)ethynyl)-4-amino-1H-pyrazolo[3,4-d]pyrimidin-1-yl)-2-(methoxymethyl)pyrrolidin-1-yl)prop-2-en-1-one]	
≤ 100 nM	C=CC(=O)N1C[C@@H](n2nc(C#Cc3ccc4c(c3)nc(C)n4C3CC3)c3c(N)ncnc32)C[C@@H]1COC [Example 15, 1-((2R,4S)-4-(4-amino-3-((1-cyclopropyl-2-methyl-1H-benzo[d]imidazol-5-yl)ethynyl)-1H-pyrazolo[3,4-d]pyrimidin-1-yl)-2-(methoxymethyl)pyrrolidin-1-yl)prop-2-en-1-one]	
≤ 100 nM	C=CC(=O)N1C[C@@H](n2nc(C#Cc3ccc4c(c3)nc(C)n4CC)c3c(N)ncnc32)C[C@@H]1COC [Example 20, 1-((2R,4S)-4-(4-amino-3-((1-ethyl-2-methyl-1H-benzo[d]imidazol-5-yl)ethynyl)-1H-pyrazolo[3,4-d]pyrimidin-1-yl)-2-(methoxymethyl)pyrrolidin-1-yl)prop-2-en-1-one]	
≤ 100 nM	C=CC(=O)N1CC[C@H](n2nc(C#Cc3ccc4[nH]c(C)nc4c3)c3c(N)ncnc32)C1 [Example 7, (S)-1-(3-(4-amino-3-((2-methyl-1H-benzo[d]imidazol-5-yl)ethynyl)-1H-pyrazolo[3,4-d]pyrimidin-1-yl)pyrrolidin-1-yl)prop-2-en-1-one]	
≤ 100 nM	C=CC(=O)N1C[C@@H](n2nc(C#Cc3c(F)cc4nc(C)n(C)c4c3F)c3c(N)ncnc32)C[C@@H]1COC [Example 13, 1-((2R,4S)-4-(4-amino-3-((5,7-difluoro-1,2-dimethyl-1H-benzo[d]imidazol-6-yl)ethynyl)-1H-pyrazolo[3,4-d]pyrimidin-1-yl)-2-(methoxymethyl)pyrrolidin-1-yl)prop-2-en-1-one]	
≤ 100 nM	C=CC(=O)N1C[C@@H](n2nc(C#Cc3ccc4c(c3)ncn4C3CC3)c3c(N)nccc32)C[C@@H]1COC [Example 24, 1-((2R,4S)-4-(4-amino-3-((1-cyclopropyl-1H-benzo[d]imidazol-5-yl)ethynyl)-1H-pyrazolo[4,3-c]pyridin-1-yl)-2-(methoxymethyl)pyrrolidin-1-yl)prop-2-en-1-one]	
≤ 100 nM	C=CC(=O)N1C[C@@H](n2nc(C#Cc3ccc4nc(C)n(C)c4c3)c3c(N)ncnc32)C[C@@H]1COC [Example 4, 1-((2R,4S)-4-(4-amino-3-((1,2-dimethyl-1H-benzo[d]imidazol-6-yl)ethynyl)-1H-pyrazolo[3,4-d]pyrimidin-1-yl)-2-(methoxymethyl)pyrrolidin-1-yl)prop-2-en-1-one]	
≤ 100 nM	C=CC(=O)N1C[C@@H](n2nc(C#Cc3ccc4c(c3)nc(C)n4C3CC3)c3c(N)nccc32)C[C@@H]1COC [Example 17, 1-((2R,4S)-4-(4-amino-3-((1-cyclopropyl-2-methyl-1H-benzo[d]imidazol-5-yl)ethynyl)-1H-pyrazolo[4,3-c]pyridin-1-yl)-2-(methoxymethyl)pyrrolidin-1-yl)prop-2-en-1-one]	
≤ 100 nM	C=CC(=O)N1C[C@@H](n2nc(C#Cc3c(F)cc4c(ncn4C)c3F)c3c(N)nccc32)C[C@@H]1COC [Example 26, 1-((2R,4S)-4-(4-amino-3-((4,6-difluoro-1-methyl-1H-benzo[d]imidazol-5-yl)ethynyl)-1H-pyrazolo[4,3-c]pyridin-1-yl)-2-(methoxymethyl)pyrrolidin-1-yl)prop-2-en-1-one]	
≤ 100 nM	C=CC(=O)N1C[C@@H](n2nc(C#Cc3ccc4[nH]nnc4c3)c3c(N)ncnc32)C[C@@H]1COC [Example 10, 1-((2R,4S)-4-(3-((1H-benzo[d][1,2,3]triazol-5-yl)ethynyl)-4-amino-1H-pyrazolo[3,4-d]pyrimidin-1-yl)-2-(methoxymethyl)pyrrolidin-1-yl)prop-2-en-1-one]	
≤ 100 nM	C=CC(=O)N1C[C@@H](n2nc(C#Cc3ccc4cn[nH]c4c3)c3c(N)ncnc32)C[C@@H]1COC [Example 14, 1-((2R,4S)-4-(3-((1H-indazol-6-yl)ethynyl)-4-amino-1H-pyrazolo[3,4-d]pyrimidin-1-yl)-2-(methoxymethyl)pyrrolidin-1-yl)prop-2-en-1-one]	
≤ 100 nM	C=CC(=O)N1C[C@@H](n2nc(C#Cc3ccc4c(c3)ncn4C)c3c(N)ncnc32)C[C@@H]1COC [Example 6, 1-((2R,4S)-4-(4-amino-3-((1-methyl-1H-benzo[d]imidazol-5-yl)ethynyl)-1H-pyrazolo[3,4-d]pyrimidin-1-yl)-2-(methoxymethyl)pyrrolidin-1-yl)prop-2-en-1-one]	
≤ 100 nM	C=CC(=O)N1C[C@@H](n2cc(C#Cc3ccc4nc(C)[nH]c4c3)c3c(N)ncnc32)C[C@@H]1COC [Example 8, 1-[(2R,4S)-4-[4-amino-5-[2-(2-methyl-3H-1,3-benzodiazol-5-yl)ethynyl]pyrrolo[2,3-d]pyrimidin-7-yl]-2-(methoxymethyl)pyrrolidin-1-yl]prop-2-en-1-one]	
	C=CC(=O)N1C[C@@H](n2nc(C#Cc3ccc4c(cnn4C)c3)c3c(N)ncnc32)C[C@@H]1COC [Example 40, 1-((2R,4S)-4-(4-amino-3-((1-methyl-1H-indazol-5-yl)ethynyl)-1H-pyrazolo[3,4-d]pyrimidin-1-yl)-2-(methoxymethyl)pyrrolidin-1-yl)prop-2-en-1-one]	IC50 [2]: ≤ 100 nM
	C=CC(=O)N1CC[C@H](n2nc(C#Cc3cc4nc(C)n(C)c4c(F)c3F)c3c(N)ncnc32)C1 [Example 189, 1-[(3S)-3-{4-Amino-3-[2-(6,7-difluoro-1,2-dimethyl-1,3-benzodiazol-5-yl)ethynyl]pyrazolo[3,4-d]pyrimidin-1-yl}pyrrolidin-1-yl]prop-2-en-1-one]	IC50 [2]: ≤ 100 nM
	C=CC(=O)N1C[C@H](c2nc(C#Cc3cc4ncn(C5CC5)c4cc3F)c3c(N)nccn23)C[C@@H]1COC [Example 202, 1-[(2R,4R)-4-{8-Amino-1-[2-(1-cyclopropyl-6-fluoro-1,3-benzodiazol-5-yl)ethynyl]imidazo[1,5-a]pyrazin-3-yl}-2-(methoxymethyl)pyrrolidin-1-yl]prop-2-en-1-one]	IC50 ([2]; given as numeric bound): > 500 nM
	C=CC(=O)N1C[C@@H](n2nc(C#Cc3ccc4c(c3)nc(C)n4CC)c3c(N)ncnc32)C[C@@H]1CC#N [Example 52, 2-((2R,4S)-1-acryloyl-4-(4-amino-3-((1-ethyl-2-methyl-1H-benzo[d]imidazol-5-yl)ethynyl)-1H-pyrazolo[3,4-d]pyrimidin-1-yl)pyrrolidin-2-yl)acetonitrile]	IC50 [2]: ≤ 100 nM
